These results are taken from patent publication US20090312384A1, “Benzimidazole As Cooling Compounds” (priority 2006, published 2009).

One data set concerns panelist. Description: Application in toothpaste: panelist's teeth brushed with toothgel containing the cooling compound. The conditions noted are these: 0.20 g of 5% (w/w) ethanol solution in opaque toothgel with peppermint oil and saccharin, after brushing and rinsing. The class given is in vivo. As for the experimental part: [table] The chemicals were mixed in the toothgel, a piece of toothgel was put on a toothbrush and a panelist's teeth were brushed. The mouth was rinsed with water and the water was spit out. […] The cooling perception lasted for 90 minutes.

Another data set relates to panelists. Put plainly: Panel tasting of aqueous solutions for cooling intensity versus menthol at 2 ppm. The data set is classed as in vivo. The conditions noted are these: aqueous solution; concentration with cooling intensity similar or slightly higher than a solution of menthol at 2 ppm. An excerpt: Experiments on cooling properties/intensities.
A group of panelists was asked to taste various aqueous solutions of compounds of formula (I) and to indicate which solutions had cooling intensities similar or slightly higher than that of a solution of menthol at 2 ppm.

On to `COc1ccc(C(=O)OC(=Cc2nc3ccc(C)cc3n2C(C)C)c2ccc(OC)cc2)cc1` [Example 5, 2-(1-isopropyl-6-methyl-1H-benzo[d]imidazol-2-yl)-1-(4-methoxyphenyl)vinyl 4-methoxybenzoate], for which the melting point (commonly the temperature, or range, at which the solid turns liquid) was 125 to 130 °C. For the same compound, the “Duration of cooling perception” value in the data set on panelist was 90 min. Besides, in the data set on panelist (all areas of the mouth), the “Cooling sensation felt by the panelist” value was “intense cooling sensation”. Moreover, the Concentration with panelists turned out to be 0.5 ppm.

In the data set on panelists, `Cc1ccc(C(=O)OC(=Cc2nc3ccccc3n2C)c2ccc(C)cc2)cc1` [Example 8, 2-(1-methyl-1H-benzo[d]imidazol-2-yl)-1-p-tolylvinyl 4-methylbenzoate] showed a Concentration of 2.0 ppm.

`CCNC(=O)C1CC(C)CCC1C(C)C` (stereo not drawn) [N-ethyl p-menthanecarboxamide (WS-3), N-ethyl p-menthanecarboxamide, reference compound]: the Concentration in the data set with panelists was 1.5 ppm.

Take `COc1ccc(C(=O)OC(=Cc2nc3cc(C)ccc3n2C(C)C)c2ccc(Cl)cc2)cc1` [Example 2, 1-(4-chlorophenyl)-2-(1-isopropyl-5-methyl-1H-benzo[d]imidazol-2-yl)vinyl 4-methoxybenzoate]: the melting point was in the range of 155 to 160 °C.

The compound `CC1CCC(C(C)C)C(O)C1` (stereo not drawn) [Example 1-Menthol, 1-Menthol, reference compound] displayed a Concentration in the data set on panelists of 2 ppm solution.

As to `COc1ccc(C(=O)OC(=Cc2nc3cc(C)ccc3n2C(C)C)c2ccc(OC)cc2)cc1` [Example 3, 2-(1-isopropyl-5-methyl-1H-benzo[d]imidazol-2-yl)-1-(4-methoxyphenyl)vinyl 4-methoxybenzoate], the melting point was in the range of 147 to 152 °C. This compound also came in with a Concentration with panelists of 0.5 ppm.

The compound `COc1ccc(C(=O)OC(=Cc2nc3ccccc3n2C)c2ccc(OC)cc2)cc1` [1-(4-methoxyphenyl)-2-(1-methyl-1H-benzo[d]imidazol-2-yl)vinyl 4-methoxybenzoate] had a Concentration with panelists of 0.5 ppm.

`Cc1ccc2nc(C=C(OC(=O)c3ccc(Cl)cc3)c3ccc(Cl)cc3)n(C(C)C)c2c1` [Example 4, 1-(4-chlorophenyl)-2-(1-isopropyl-6-methyl-1H-benzo[d]imidazol-2-yl)vinyl 4-chlorobenzoate] came in with a melting point of 158 to 165 °C.
